Results as given in patent US6423689B1, “Peptidyl calcium channel blockers” (Warner-Lambert Company, priority 1997, dated 2002).

Target: T1, N-type Ca2+ channels in IMR-32 cells (Homo sapiens, UniProt Q00975)
T1 construct: host or cells: IMR-32 cells, differentiated with dibutyryl cAMP and bromodeoxyuridine
Assay: Inhibition of N-type calcium flux in IMR-32 cells (Indo-1 fluorescence, nitrendipine present)
Type: cell-based
Details: for IC50: IMR-32 cells, 5 μM nitrendipine, K+ depolarization
Protocol: Measurement of N-type Ca^2+ Channel Blocking Potencies of Compounds in IMR-32 Cells Using the Fluorescent Ca^2+ Indicator Indo-1
IMR-32 cells are a human tumoral cell line of neural origin. […] Calcium flux into these cells may be induced by stimulation with elevated potassium concentrations. The L-channel component of calcium flux may be blocked by adding 5 μM nitrendipine. The remaining component of calcium entry into the IMR-32 cells is due to calcium flux through N-type calcium channels. Intracellular calcium concentrations are measured using the fluorescent calcium indicator Indo 1. The effect of drug concentration on calcium uptake is studied.
The IMR-32 cell line was obtained from the American Type Culture Collection (Rockville, Md.). Cells were grown in Eagle's Minimum Essential Medium with Eagle's salts supplemented with 10% fetal bovine serum, 2 mM L-Gln and antibiotic/antimycotic mixture (Gibco). […] After 7 to 13 days of differentiation, cells were detached using 0.5 mM EDTA and loaded with 5 μM Indo-1 acetoxymethyl ester (Molecular Probes, Eugene, OR) at […] for 45 minutes. Loaded cells were washed twice, resuspended (˜10^7 cells/mL) in assay buffer (10 mM HEPES/Tris pH 7.4 in Hank's Balanced Salt Solution without bicarbonate or phenol red containing 0.5% bovine serum albumin) and kept on ice until use. Fluorescence measurements were carried out in a Photon Technology International (PTI, South Brunswick, N.J.) Model RF-F3004 spectrofluorometer with dual emission monochromators using excitation at 350 nm and emission at 400 and 490 nm. The instrument was equipped with a thermostated cuvette holder with stirring capabilities as well as with a computer-controlled pump which allowed for reagent addition during measurement. Instrument control and data collection was done by PTI's OSCAR software running on an IBM compatible computer. […] Samples were incubated for 10 minutes at 30° C. and then aliquoted into three 10×10 mm disposable acrylic cuvettes. Emission signals at 400 and 490 nm were acquired from each cuvette at 30° C. for 50 seconds. At 20 seconds after the start of reading, cells were depolarized by the addition of 160 μL of stimulation solution (1M KCl, 68 mM CaCl2) to the cuvette via the computer-controlled pump. Ratio of dual emission signals (400 nm/490 nm), which is proportional to intracellular Ca^2+ concentration, was plotted against time, and the difference between maximal response after stimulation and basal value (before stimulation) was determined. Values obtained in this way were plotted as a function of drug concentration. IC50 values of test compounds were calculated by fitting a four-parameter logistic function to the data using the least squares method.

T1 sequence (Q00975 whole entry): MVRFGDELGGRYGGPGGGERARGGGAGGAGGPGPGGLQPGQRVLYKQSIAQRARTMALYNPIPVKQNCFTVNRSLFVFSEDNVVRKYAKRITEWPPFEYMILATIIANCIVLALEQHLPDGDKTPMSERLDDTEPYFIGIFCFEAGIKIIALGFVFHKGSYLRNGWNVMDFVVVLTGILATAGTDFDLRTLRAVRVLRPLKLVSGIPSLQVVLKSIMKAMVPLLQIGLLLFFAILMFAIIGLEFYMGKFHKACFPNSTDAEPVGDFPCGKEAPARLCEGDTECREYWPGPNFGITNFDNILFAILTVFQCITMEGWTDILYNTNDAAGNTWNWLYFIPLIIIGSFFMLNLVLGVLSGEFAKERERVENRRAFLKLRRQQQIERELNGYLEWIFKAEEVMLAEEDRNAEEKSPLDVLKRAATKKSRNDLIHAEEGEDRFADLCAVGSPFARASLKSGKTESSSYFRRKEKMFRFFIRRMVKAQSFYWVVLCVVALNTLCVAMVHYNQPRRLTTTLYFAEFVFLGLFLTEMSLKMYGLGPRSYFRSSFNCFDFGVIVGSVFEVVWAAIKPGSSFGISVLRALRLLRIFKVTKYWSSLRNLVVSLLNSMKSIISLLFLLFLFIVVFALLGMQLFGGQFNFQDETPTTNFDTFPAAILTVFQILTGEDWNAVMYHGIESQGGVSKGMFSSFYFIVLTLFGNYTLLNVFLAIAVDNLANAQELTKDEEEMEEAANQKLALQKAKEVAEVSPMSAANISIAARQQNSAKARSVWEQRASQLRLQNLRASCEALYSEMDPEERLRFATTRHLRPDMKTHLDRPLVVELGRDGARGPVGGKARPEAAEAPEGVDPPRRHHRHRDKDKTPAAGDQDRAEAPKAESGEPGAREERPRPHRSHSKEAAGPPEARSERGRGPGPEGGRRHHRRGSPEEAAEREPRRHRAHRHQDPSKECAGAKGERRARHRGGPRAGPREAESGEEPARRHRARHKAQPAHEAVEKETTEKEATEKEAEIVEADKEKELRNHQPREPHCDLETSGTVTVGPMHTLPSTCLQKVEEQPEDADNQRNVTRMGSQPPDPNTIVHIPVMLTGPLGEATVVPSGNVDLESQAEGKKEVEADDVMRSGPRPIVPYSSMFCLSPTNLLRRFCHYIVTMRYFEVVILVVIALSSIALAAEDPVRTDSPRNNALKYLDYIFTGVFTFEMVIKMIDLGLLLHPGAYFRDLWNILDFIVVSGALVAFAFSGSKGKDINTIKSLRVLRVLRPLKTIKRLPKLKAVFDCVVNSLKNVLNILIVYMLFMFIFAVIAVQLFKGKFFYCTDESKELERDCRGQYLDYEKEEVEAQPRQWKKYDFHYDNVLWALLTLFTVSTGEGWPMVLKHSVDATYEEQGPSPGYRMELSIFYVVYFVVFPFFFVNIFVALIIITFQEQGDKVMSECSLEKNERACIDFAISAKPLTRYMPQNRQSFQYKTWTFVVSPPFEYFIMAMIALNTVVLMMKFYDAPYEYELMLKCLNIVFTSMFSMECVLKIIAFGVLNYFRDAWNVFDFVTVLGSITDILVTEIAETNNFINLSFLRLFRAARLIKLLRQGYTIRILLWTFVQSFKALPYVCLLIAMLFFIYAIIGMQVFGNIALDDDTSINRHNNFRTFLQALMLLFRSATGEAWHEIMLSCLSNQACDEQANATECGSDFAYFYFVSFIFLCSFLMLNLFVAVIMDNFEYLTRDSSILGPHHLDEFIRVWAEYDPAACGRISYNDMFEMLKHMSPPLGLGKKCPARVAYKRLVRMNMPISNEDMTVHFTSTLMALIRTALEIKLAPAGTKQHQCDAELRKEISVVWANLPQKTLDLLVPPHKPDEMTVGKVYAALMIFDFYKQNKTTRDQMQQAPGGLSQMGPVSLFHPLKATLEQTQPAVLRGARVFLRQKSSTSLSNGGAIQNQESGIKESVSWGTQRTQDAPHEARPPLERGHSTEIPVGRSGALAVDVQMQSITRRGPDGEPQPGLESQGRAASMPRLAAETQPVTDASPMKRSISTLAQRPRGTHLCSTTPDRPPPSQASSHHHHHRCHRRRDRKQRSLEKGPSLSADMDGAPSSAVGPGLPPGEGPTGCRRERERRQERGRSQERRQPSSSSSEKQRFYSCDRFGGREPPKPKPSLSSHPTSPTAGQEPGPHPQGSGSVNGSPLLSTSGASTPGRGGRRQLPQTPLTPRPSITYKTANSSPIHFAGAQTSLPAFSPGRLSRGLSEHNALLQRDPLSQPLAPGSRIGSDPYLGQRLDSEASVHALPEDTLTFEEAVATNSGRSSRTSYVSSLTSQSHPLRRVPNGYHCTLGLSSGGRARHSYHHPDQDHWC
T1 sequence (P54289 25-956 partner limits assumed): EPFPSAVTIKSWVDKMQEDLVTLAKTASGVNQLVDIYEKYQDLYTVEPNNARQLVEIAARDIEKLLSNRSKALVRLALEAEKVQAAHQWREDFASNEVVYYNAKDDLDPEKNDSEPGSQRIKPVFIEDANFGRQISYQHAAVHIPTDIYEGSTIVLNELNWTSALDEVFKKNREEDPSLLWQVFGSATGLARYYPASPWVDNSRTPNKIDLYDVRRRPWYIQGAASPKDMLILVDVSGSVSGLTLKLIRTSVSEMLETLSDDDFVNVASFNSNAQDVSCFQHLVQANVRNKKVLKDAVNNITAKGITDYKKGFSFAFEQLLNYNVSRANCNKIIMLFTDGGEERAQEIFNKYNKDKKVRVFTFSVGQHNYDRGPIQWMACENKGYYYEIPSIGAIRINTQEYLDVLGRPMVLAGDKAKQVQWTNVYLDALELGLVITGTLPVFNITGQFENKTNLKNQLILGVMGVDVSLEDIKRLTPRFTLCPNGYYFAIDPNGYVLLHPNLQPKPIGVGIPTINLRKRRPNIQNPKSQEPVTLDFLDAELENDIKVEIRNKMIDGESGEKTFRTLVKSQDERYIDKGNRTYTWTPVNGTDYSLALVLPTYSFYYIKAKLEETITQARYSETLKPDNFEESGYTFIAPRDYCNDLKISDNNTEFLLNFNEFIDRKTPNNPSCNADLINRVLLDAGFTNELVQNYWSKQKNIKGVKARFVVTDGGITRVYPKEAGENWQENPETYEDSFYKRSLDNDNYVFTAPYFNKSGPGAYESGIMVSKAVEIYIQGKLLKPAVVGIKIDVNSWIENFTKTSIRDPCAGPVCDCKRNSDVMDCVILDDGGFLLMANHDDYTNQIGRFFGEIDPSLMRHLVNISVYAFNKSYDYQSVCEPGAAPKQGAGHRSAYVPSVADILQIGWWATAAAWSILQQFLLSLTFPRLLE
T1 sequence (P54289 957-1103 partner limits assumed): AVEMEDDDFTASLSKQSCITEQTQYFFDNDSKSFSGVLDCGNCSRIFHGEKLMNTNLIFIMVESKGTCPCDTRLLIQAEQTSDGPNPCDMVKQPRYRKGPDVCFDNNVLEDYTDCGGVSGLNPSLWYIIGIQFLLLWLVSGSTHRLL
T1 sequence (P54284 whole entry partner): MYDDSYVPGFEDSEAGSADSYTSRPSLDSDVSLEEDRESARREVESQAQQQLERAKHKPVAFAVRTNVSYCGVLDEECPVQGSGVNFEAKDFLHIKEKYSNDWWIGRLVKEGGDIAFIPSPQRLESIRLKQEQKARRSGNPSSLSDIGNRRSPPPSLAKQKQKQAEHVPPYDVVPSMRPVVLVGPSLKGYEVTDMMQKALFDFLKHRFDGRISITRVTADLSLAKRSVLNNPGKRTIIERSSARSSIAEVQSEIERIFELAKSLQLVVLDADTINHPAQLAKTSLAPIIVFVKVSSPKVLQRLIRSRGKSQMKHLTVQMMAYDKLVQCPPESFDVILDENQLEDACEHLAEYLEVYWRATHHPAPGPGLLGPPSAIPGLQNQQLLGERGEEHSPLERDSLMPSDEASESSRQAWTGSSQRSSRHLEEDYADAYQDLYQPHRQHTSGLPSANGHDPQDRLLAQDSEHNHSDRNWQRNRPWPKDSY

Structure (SMILES)	Inhibition of Calcium Flux in IMR-32 Cells % Inhibition at 1 μM [%]	Inhibition of Calcium Flux in IMR-32 Cells % Inhibition at 10 μM [%]	also measured
CC(C)C[C@H](NC(=O)Nc1cccc(Cl)c1)C(=O)N[C@@H](Cc1ccc(OCc2ccccc2)cc1)C(=O)OC(C)(C)C (relative stereo) [Example 74, [S-(R*,R*)]-3-(4-Benzyloxy-phenyl)-2-{2-[3-(3-chloro-phenyl)-ureido]-4-methyl-pentanoylamino}-propionic acid tert-butyl ester]	45		
Cc1ccc(NC(=S)N[C@@H](CC(C)C)C(=O)N[C@@H](Cc2ccc(OCc3ccccc3)cc2)C(=O)OC(C)(C)C)cc1 (relative stereo) [Example 50, [S-(R*,R*)]-3-(4-Benzyloxy-phenyl)-2-[4-methyl-2-(3-p-tolyl-thioureido)-pentanoylamino]-propionic acid tert-butyl ester]	53	85	
CC(C)C[C@H](NC(=O)c1cccnc1)C(=O)N[C@@H](Cc1ccc(OCc2ccccc2)cc1)C(=O)OC(C)(C)C (relative stereo) [Example 124, [S-(R*,R*)]-3-(4-Benzyloxy-phenyl)-2-{4-methyl-2-[(pyridine-3-carbonyl)-amino]pentanoylamino}-propionic acid tert-butyl ester]		60	
CC(C)CC(NC(=O)N1CCCCCC1)C(=O)NC(Cc1ccc(OCc2ccccc2)cc1)C(=O)NCC(O)c1ccccc1 (stereo not drawn) [Example 190, Azepane-1-carboxylic acid {1-[2-(4-benzyloxy-phenyl)-1-(2-hydroxy-2phenyl-ethylcarbamoyl)-ethylcarbamoyl]-3-methyl-butyl}-amide]			IC50: 790 nM
CC(C)C[C@H](NS(=O)(=O)c1ccc(F)cc1)C(=O)N[C@@H](Cc1ccc(OCc2ccccc2)cc1)C(=O)OC(C)(C)C (relative stereo) [Example 104, [S-(R*,R*)]-3-(4-Benzyloxy-phenyl)-2-[2-(4-fluoro-benzenesulfonylamino)-4-methyl-pentanoylamino]-propionic acid tert-butyl ester]	35		
CC(C)C[C@H](NC(=O)N1CCCCCC1)C(=O)N[C@@H](Cc1ccc(OCc2ccccc2)cc1)C(=O)NCCC#N (relative stereo) [Example 236, [S-(R*,R*)]-Azepane-1-carboxylic acid {1-[2-(4-benzyloxy-phenyl)-1-(2-cyano-ethylcarbamoyl)-ethylcarbamoyl]-3-methyl-butyl}-amide]	50	93	
CC(C)C[C@H](NC(=O)Nc1ccc(Cl)c(Cl)c1)C(=O)N[C@@H](Cc1ccc(OCc2ccccc2)cc1)C(=O)OC(C)(C)C (relative stereo) [Example 85, [S-(R*,R*)]-3-(4-Benzyloxy-phenyl)-2-{2-[3-(3,4-dichloro-phenyl)-ureido]-4-methyl-pentanoylamino}-propionic acid tert-butyl ester]	30		
CC(C)C[C@H](NC(=O)CCc1c[nH]c2ccccc12)C(=O)N[C@@H](Cc1ccc(OCc2ccccc2)cc1)C(=O)OC(C)(C)C (relative stereo) [Example 120, [S-(R*,R*)]-3-(4-Benzyloxy-phenyl)-2-[2-(3-1H-indol-3-yl-propionylamino)-4-methyl-pentanoylamino]-propionic acid tert-butyl ester]		65	
CC(C)C[C@H](NC(=O)N1CCCCCC1)C(=O)N[C@@H](Cc1ccc(OCc2ccccc2)cc1)C(=O)Nc1ccc(N2CCCCC2)cc1 (relative stereo) [Example 260, [S-(R*,R*)]-Azepane-1-carboxylic acid {1-[2-(4-benzyloxy-phenyl)-1-(4-piperidin-1-yl-phenylcarbamoyl)-ethylcarbamoyl]-3-methyl-butyl}-amide]		33	
CC(C)C[C@H](NS(=O)(=O)c1cccs1)C(=O)N[C@@H](Cc1ccc(OCc2ccccc2)cc1)C(=O)OC(C)(C)C (relative stereo) [Example 107, [S-(R*,R*)]-3-(4-Benzyloxy-phenyl)-2-[4-methyl-2-(thiophene-2-sulfonylamino)-pentanoylamino]-propionic acid tert-butyl ester]		57	
CC(C)CC(NC(=O)N1CCCCCC1)C(=O)NC(Cc1ccc(OCc2ccccc2)cc1)C(=O)NCC1CCN(Cc2ccccc2)C1 (stereo not drawn) [Example 250, Azepane-1-carboxylic acid (1-{2-(4-benzyloxy-phenyl)-1-[(1-benzyl-pyrrolidin-3-ylmethyl)-carbamoyl]-ethylcarbamoyl}-3-methyl-butyl)-amide]			IC50: 270 nM
CCNC(=O)N[C@@H](CC(C)C)C(=O)N[C@@H](Cc1ccc(OCc2ccccc2)cc1)C(=O)OC(C)(C)C (relative stereo) [Example 89, [S-(R*,R*)]-3-(4-Benzyloxy-phenyl)-2-[2-(3-ethyl-ureido)-4-methyl-pentanoylamino]-propionic acid tert-butyl ester]	30		
CC(C)C[C@H](NC(=O)N1CCCCCC1)C(=O)N[C@@H](Cc1ccc(OCc2ccccc2)cc1)C(=O)NCc1ccc2c(c1)OCO2 (relative stereo) [Example 222, [S-(R*,R*)]-Azepane-1-carboxylic acid {1-[1-[(benzo[1,3]dioxol-5-ylmethyl)-carbamoyl]-2-(4-benzyloxy-phenyl)-ethylcarbamoyl]-3-methyl-butyl}-amide]	36	84	
CC(C)C[C@H](NC(=O)Nc1ccc(Cl)cc1)C(=O)N[C@@H](Cc1ccc(OCc2ccccc2)cc1)C(=O)OC(C)(C)C (relative stereo) [Example 80, [S-(R*,R*)]-3-(4-Benzyloxy-phenyl)-2-{2-[3-(4-chloro-phenyl)-ureido]-4-methyl-pentanoylamino}-propionic acid tert-butyl ester]	40		
CC(C)C[C@H](NC(=O)Cc1c[nH]c2ccccc12)C(=O)C[C@H](Cc1ccc(OCc2ccccc2)cc1)C(=O)OC(C)(C)C (relative stereo) [Example 113, [S-(R*,R*)]-2-(4-Benzyloxy-benzyl)-5-(2-1H-indol-3-yl-acetylamino)-7-methyl-4-oxo-octanoic acid tert-butyl ester]		83	
CC(C)C[C@H](NC(=O)N1CCCCCC1)C(=O)N[C@@H](Cc1ccc(OCc2ccccc2)cc1)C(=O)N1CCC(N2CCCCC2)CC1 [Example 185, [S-(R*,R*)]-Azepane-1-carboxylic acid {1-[1-(4-benzyloxy-benzyl)-2-[1,4′]bipiperidinyl-1′-yl-2-oxo-ethylcarbamoyl]-3-methyl-butyl}-amide]			IC50: 2300 nM
CC(C)C[C@H](NC(=O)N1CCCCCC1)C(=O)N[C@@H](Cc1ccc(OCc2ccccc2)cc1)C(=O)N1CCN(CCO)CC1 [Example 202, [S-(R*,R*)]-Azepane-1-carboxylic acid (1-{1-(4-benzyloxy-benzyl)-2-[4-(2-hydroxy-ethyl)-piperazin-1-yl]-2-oxo-ethylcarbamoyl}-3-methyl-butyl)-amide]			inhibition at 1 µM (IMR-32): 25%; inhibition at 10 µM (IMR-32): 79%; IC50: 2800 nM
CC(C)CC(NC(=O)N1CCCCCC1)C(=O)NC(Cc1ccc(OCc2ccccc2)cc1)C(=O)NC(CO)C(O)c1ccccc1 (stereo not drawn) [Example 227, [S-(R*,R*)]-Azepane-1-carboxylic acid {1-[2-(4-benzyloxy-phenyl)-1-(2-hydroxy-1-hydroxymethyl-2-phenyl-ethylcarbamoyl)-ethylcarbamoyl]-3-methyl-butyl}-amide]	19	86	
CC(C)C[C@H](NC(=O)N1CCCCCC1)C(=O)N[C@@H](Cc1ccc(OCc2ccccc2)cc1)C(=O)Nc1ccc(Br)cc1 (relative stereo) [Example 173, [S-(R*,R*)]-Azepane-1-carboxylic acid {1-[2-(4-benzyloxy-phenyl)-1-(4-bromophenylcarbamoyl)-ethylcarbamoyl]-3-methyl-butyl}-amide]			IC50: 280 nM
CCC(CO)(CO)NC(=O)[C@H](Cc1ccc(OCc2ccccc2)cc1)NC(=O)[C@H](CC(C)C)NC(=O)N1CCCCCC1 (relative stereo) [Example 229, [S-(R*,R*)]-Azepane-1-carboxylic acid {1-[2-(4-benzyloxy-phenyl)-1-(1,1-bis-hydroxymethyl-propylcarbamoyl)-ethylcarbamoyl]-3-methyl-butyl}-amide]	30	80	
